Holding throughout (assay type): cell-based
One data set deals with Bcl-2. Kind of data set: Western blot of building block components, Bcl-2 expression in Skmel-28 melanoma cells. The note with it: 15 μM, 24 hours. As for the experimental part: Skmel-28 melanoma cells were cultured in DMEM/F12 supplemented with 5% Fetal Bovine Serum (FBS) and 1× final concentration of Antibiotics. The cells were grown to 85% confluency and treated with building block components for 3, 6, 12 and 24 hours. The cells were then pelleted and a Western blot analysis was performed.
The test building block components included L-Phenylylalanine, DL-Phenylyalanine, D-Phenylylalanine, L-Tyrosine, DL-Tyrosine, D-Tyrosine, 4-Hydroxy-phenylpyruvate, phenylacetate, 3-methoxy-4-hydroxymandelate (vanillylmandelate or VMA), vanillic acid, 4-hydroxy-benzoate, pyridoxine, panthenol, mevalonic acid, Acetylglycine, Acetyl-CoA, Farnesyl, and 2,3-Dimethoxy-5-methyl-p-benzoquinone.
In the Western Blot Analysis, the cells were pelleted in cold PBS, lysed, and the protein levels were quantified using a BCA protein assay. The whole cell lysate was loaded in a 4% loading 12% running Tris-HCl gel. The proteins were then transferred to a nitrocellulose paper then blocked with a 5% milk Tris-buffered solution for 1 hour. The proteins were then exposed to primary antibodies (Bcl-2 and Caspase-3) overnight. The nitrocellulose paper was then exposed to Pico Chemilluminescent for 5 min and the protein expression was recorded. After exposure, actin was quantified using the same method. Using ImageJ the levels of protein expression were quantified. A t-Test was used to analyze for statistical significance.

For another data set, the system named is Melanoma cells. Kind of data set: Cell proliferation assay (live cell count) of building block combinations. As to the method:
Cell Proliferation Assay of the Combination of 4-Hydroxy-Benzoate with Benzoquinone: This set of experiments used a cell proliferation assay to assess the effect of combining different building block molecules on cell proliferation.
The first study examined the effect of combining 4-Hydroxy-Benzoate with Benzoquinone. Cells were incubated for 48 hours, after which a cell count was performed for the live cells. Each test group was compared to the control, and each combination groups were compared to Benzoquinone control. The compounds were statistically analyzed for the addition of Benzoquinone.
Additional studies were performed testing additional molar ratios. For the first test 4-Hydroxybenzoic were tested at concentrations of 500 nM, 1 μM, and 50 μM. These concentrations were tested in combination with 2,3-Dimethoxy-5-methyl-p-benzoquinone (Benzo). The concentration of Benzo tested were 25 μM, 50 μM, and 100 μM. Melanoma cells were grown to 80% confluency and seeded in 6 well plates at a concentration of 40K cells per well. The cells were treated with CoQ10, 4-Hydroxybenzoate, Benzo, and a combination of 4-Hydroxybenzoate/Benzo.
A T-test was performed with p<0.05 as statistically significant.

Data set [1] relates to neonatal fibroblast cells. Kind of data set: Cell proliferation assay (coulter counter). The note with it: HB 500 nM, 5 μM, 25 μM, alone or with benzoquinone 25, 50, 100 μM; 24 hours.
Description: A cell proliferation assay was also performed on neonatal fibroblast cells. […] The cells were trypsinized and quantified using a coulter counter.

Molecules are shown by their SMILES.

With `O=C(O)c1ccc(O)cc1` [4-Hydroxybenzoate], the Bcl-2 expression entry with Bcl-2 was “significant reduction”. Further, in the data set with Melanoma cells (48 hours incubation), the “cell number vs control” value is “significant decrease”. For the same compound, in the data set with Melanoma cells (treatment medium containing HB (500 nM, 1 μM, 50 μM)), the cell proliferation result is recorded as “significant decrease”. Also, in data set [1], the “fibroblast cell number (toxicity in normal cells)” value is reported as “did not show a significant reduction”.

The record behind these values is patent US20110020312A1, “METHODS FOR TREATMENT OF METABOLIC DISORDERS USING EPIMETABOLIC SHIFTERS, MULTIDIMENSIONAL INTRACELLULAR MOLECULES, OR ENVIRONMENTAL INFLUENCERS” (priority 2009, published 2011).
